The results in this text go back to patent US20230131899A1, “INHIBITORS OF MICROBIALLY INDUCED AMYLOID” (Axial Therapeutics, Inc., priority 2020, published 2023).

Experiment [1] addresses T1, E. coli CsgA (Escherichia coli, UniProt P28307).
T1 construct: made in house; host or cells: E. coli NEB 3016 slyD::kan, pET11d
As to the kind of experiment: In vitro ThioflavinT assay of CsgA aggregation (CsgA ThT Assay). Format: biochemical. The following applies: for remaining activity at 25 µM: compound 25 μM; for remaining activity at 100 µM: compound 100 μM. The method, boiled down:
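Purified C-terminal His-tagged CsgA, monomerised by desalting and 30-kDa filtration, at 2-20 μM with 20-40 μM ThT in 50 mM potassium phosphate pH 7.3, 1% DMSO, compounds 3.125-200 uM; room temperature, fluorescence (ex 438/em 495 nm) read every 15 min. Background-subtracted signal expressed as percent inhibition versus vehicle at 6-6.5 or 8-9 h, or as percent control AUC.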

In experiment [2] the target is T2, human α-synuclein (Homo sapiens, UniProt P37840).
T2 construct: the full-length gene for untagged human α-synuclein was inserted; made in house; host or cells: E. coli BL21(DE3), plasmid derived from pT7 or pET11a
As to the kind of experiment: Cell-free Thioflavin T assay of α-synuclein aggregation (αSyn ThT Assay). The format is biochemical. The conditions noted are these: αSyn 50 μM. As for the experimental part:
To assess the effects of compounds on aggregation of α-synuclein, a cell-free assay was performed using purified α-synuclein and Thioflavin T. In the assay, human α-synuclein was expressed in E. coli BL21(DE3) from a plasmid derived from pT7 or pET11a into which the full-length gene for untagged human α-synuclein was inserted. Cells were induced at OD600 0.6 with 0.8 mM IPTG for 4 hours, harvested by centrifugation and suspended in a volume of lysis buffer (10 mM Tris, pH 8.0, 1 mM EDTA, and 1 mM PMSF) equivalent to one-tenth the volume of culture and lysed by boiling for 20 minutes. Cell debris was pelleted by centrifugation, clarified lysate was treated with 10% streptomycin sulfate at 136 μL/mL followed by glacial acetic acid at 228 μL/mL, lysate was centrifuged, supernatant was transferred to a fresh tube and protein was precipitated via addition of an equal volume of saturated (100%) ammonium sulfate and incubated at 4° C. on a rocking shaker for 1 hour. The protein was pelleted via centrifugation and washed with an equal volume of 100 mM ammonium acetate in chilled ethanol, pelleted via centrifugation, washed twice with chilled ethanol, dried overnight, resuspended in 50 mM potassium phosphate buffer pH 7.3 or 10 mM Tris pH 7.4, and passed through a 50 kDa cut-off column. Immediately prior to use, the purified α-synuclein was filtered with a 0.2 μm nylon filter. The assay was conducted in 96-well black microplates with a single 1-2 mm glass bead in each well, 20-40 μM ThioflavinT, 1% DMSO, α-synuclein at 50 μM and compounds at 20-100 μM. Plates were sealed with sealing tape (ThermoFisher 232701), incubated at 37° C. in a Tecan Nano F200 plate reader with excitation at 438 nm using a 439 nm filter with a bandwidth of 8 nm, and emission at 495 nm with a 490 nm filter with a bandwidth of 10 nm. During the assay, plates were shaken continuously or were shaken for 999 seconds every 18 minutes. Readings were performed hourly for up to 73 hours. The effect of compounds on α-synuclein aggregation in the assay was determined with data at 36, 47, 48 or 72 hours or from the final timepoint of the assay, prior to or roughly near the time when ThT fluorescence plateaued in the vehicle control wells. The vehicle controls contained all components of the assay except compounds and represented the level of α-synuclein aggregation in the absence of an inhibitor or accelerator. Fluorescence values for each compound with α-synuclein were first adjusted by subtracting the average fluorescence of the compound in the absence of α-synuclein. These adjusted values were normalized by dividing them by the average fluorescence at the same timepoint in the vehicle control wells, and the average normalized fluorescence with the compound was expressed as a percentage of the average fluorescence observed in untreated controls. Percent inhibition of α-synuclein aggregation by a compound was determined by subtracting the percent average fluorescence with the compound relative to the average vehicle control from 100%. A higher positive percent inhibition reflects greater inhibition of α-synuclein aggregation, while a negative percent inhibition reflects potentiation of α-synuclein aggregation.
Alternate concentrations of Thioflavin T may be used in the assay and may affect the fluorescent signal and sensitivity of the assay. Alternate concentrations of α-synuclein may be used and such alterations may affect aggregation kinetics of α-synuclein in the assay. Alternate concentrations of compounds may be tested in the assay, and dose-responses may be evaluated. Additional reagents may be added to the assay which may affect aggregation kinetics of α-synuclein depending on their concentration, including detergents such as sodium dodecyl sulfate, sodium chloride, dithiotreitol, or bovine serum albumin. Shaking may be included at alternate intervals in the assay and may affect α-synuclein aggregation kinetics. […]

Setting [3] is: read-out: CsgA ThT Assay (10 μM CsgA) % Control AUC at 1005 minutes, 25 μM (activity range), CsgA 10 μM, black plates, 1005 minutes, class symbol.
The mark [4] stands for this setting: read-out: CsgA ThT Assay (10 μM CsgA) % Control AUC at 1005 minutes, 25 μM, mean AUC as % of DMSO control, CsgA 10 μM, black plates, 1005 minutes.
Setting [5] is: read-out: CsgA ThT Assay (10 μM CsgA) % Control AUC at 1005 minutes, 100 μM (activity range), CsgA 10 μM, black plates, 1005 minutes, class symbol.
Setting [6] is: read-out: CsgA ThT Assay (10 μM CsgA) % Control AUC at 1005 minutes, 100 μM, mean AUC as % of DMSO control, CsgA 10 μM, black plates, 1005 minutes.
[7] abbreviates: mean % inhibition of αSyn aggregation relative to DMSO control, compounds at 100 μM, read-out: αSyn ThT Assay % Inhibition.
Setting [8] is: compounds at 100 μM, class symbol, read-out: αSyn ThT Assay % Inhibition (activity range).
The mark [9] stands for this setting: read-out: CsgA ThT Assay (2 μM CsgA) % Control Bmax 25 μM, activity range, class symbol, CsgA 2 μM, white plates.
Setting [10] is: read-out: CsgA ThT Assay (2 μM CsgA) % Control Bmax 25 μM, mean Bmax as percentage of DMSO control, CsgA 2 μM, white plates.
The mark [11] stands for this setting: read-out: CsgA ThT Assay (2 μM CsgA) % Control Bmax 100 μM, activity range, class symbol, CsgA 2 μM, white plates.
Setting [12] is: read-out: CsgA ThT Assay (2 μM CsgA) % Control Bmax 100 μM, mean Bmax as percentage of DMSO control, CsgA 2 μM, white plates.
Setting [13] is: class symbol, compounds 100 μM, read-out: αSyn ThT Assay % inhibition, activity range.
Setting [14] is: mean percent inhibition relative to DMSO control, compounds 100 μM, read-out: αSyn ThT Assay % inhibition.

Where two headings read alike, the source gives them in different places.

As usually defined, the inhibition is the relative decrease from the control value, in per cent.

T1 sequence (P28307 23-151): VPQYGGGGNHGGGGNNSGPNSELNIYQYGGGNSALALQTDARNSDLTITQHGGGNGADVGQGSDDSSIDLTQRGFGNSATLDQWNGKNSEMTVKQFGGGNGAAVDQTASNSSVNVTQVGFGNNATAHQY

For `O=C(O)CCCN1CC(C(=O)O)n2c(c(-c3cccc(C(F)(F)F)c3)c(Cc3cccc4ccccc34)cc2=O)S1(=O)=O` (stereo not drawn) [Compound 029, 2-(3-carboxypropyl)-8-(naphthalen-1-ylmethyl)-6-oxo-9-(3-(trifluoromethyl)phenyl)-3,4-dihydro-2H,6H-pyrido[1,2-e][1,2,5]thiadiazine-4-carboxylic acid 1,1-dioxide], the values for the remaining activity at 25 µM in experiment [1] (setting [3]) and in experiment [1] (setting [4]) were > 60% and 71%, respectively. Besides, the remaining activity at 100 µM is 31 to 60% in experiment [1] (setting [5]) and 48% in experiment [1] (setting [6]). The inhibition at 100 µM is -2% in experiment [2] (setting [7]) and -10 to 10% in experiment [2] (setting [8]).
With `CN1CC(C(=O)O)n2c(c(-c3cccc(C(F)(F)F)c3)c(Cc3cccc4ccccc34)cc2=O)S1(=O)=O` (single isomer, unassigned) [Compound 008a, 2-methyl-8-(naphthalen-1-ylmethyl)-6-oxo-9-(3-(trifluoromethyl)phenyl)-3,4-dihydro-2H,6H-pyrido[1,2-e][1,2,5]thiadiazine-4-carboxylic acid 1,1-dioxide], the remaining activity at 25 µM in experiment [1] (setting [3]) was > 60%; in experiment [1] (setting [4]), 71%. The remaining activity at 100 µM is 31 to 60% in experiment [1] (setting [5]) and 38% in experiment [1] (setting [6]). Besides, the inhibition at 100 µM in experiment [2] (setting [7]) is 16%. Moreover, in experiment [2] (compounds at 100 μM, class symbol), the “αSyn ThT Assay % Inhibition (activity range)” value was “(+) ((+) represents 11 to 30)”.
With `Nc1c(Cc2cccc3ccccc23)c(-c2cccc(C(F)(F)F)c2)c2scc(C(=O)O)n2c1=O` [Compound 050, 6-amino-7-(naphthalen-1-ylmethyl)-5-oxo-8-(3-(trifluoromethyl)phenyl)-5H-thiazolo[3,2-a]pyridine-3-carboxylic acid], the figures for the remaining activity at 25 µM in experiment [1] (setting [3]) and in experiment [1] (setting [4]) were 31 to 60% and 36%, respectively. Further, the figures for the remaining activity at 100 µM in experiment [1] (setting [5]) and in experiment [1] (setting [6]) were 11 to 31% and 22%, respectively. The inhibition at 100 µM in experiment [2] (setting [7]) was 49%; in experiment [2] (setting [8]), 31 to 60%.
With `CN1CC(C(=O)O)n2c(c(-c3cccc(C(F)(F)F)c3)c(Cc3ccc(N)c4ccccc34)cc2=O)S1(=O)=O` (stereo not drawn) [Compound 040], the results for the remaining activity at 25 µM in experiment [1] (setting [3]) and in experiment [1] (setting [4]) were > 60% and 78%, respectively. The results for the remaining activity at 100 µM in experiment [1] (setting [5]) and in experiment [1] (setting [6]) were < 10% and 8%, respectively. For the same molecule, the inhibition at 100 µM was 61% in experiment [2] (setting [7]) and > 60% in experiment [2] (setting [8]).
On to `CCCN1CC(C(=O)O)n2c(c(-c3cccc(C(F)(F)F)c3)c(Cc3cccc4ccccc34)c(N3CCCC3=O)c2=O)S1(=O)=O` (stereo not drawn) [Compound 151, 8-(naphthalen-1-ylmethyl)-6-oxo-7-(2-oxopyrrolidin-1-yl)-2-propyl-9-(3-(trifluoromethyl)phenyl)-3,4-dihydro-2H,6H-pyrido[1,2-e][1,2,5]thiadiazine-4-carboxylic acid 1,1-dioxide], for which the remaining activity at 25 µM in experiment [1] (setting [9]) is > 60%; in experiment [1] (setting [10]), 67%. For the same molecule, the figures for the remaining activity at 100 µM in experiment [1] (setting [11]) and in experiment [1] (setting [12]) were > 60% and 73%, respectively. The inhibition at 100 µM was > 60% in experiment [2] (setting [13]) and 61% in experiment [2] (setting [14]).
As for `O=C(O)C1CNS(=O)(=O)c2c(-c3cccc(C(F)(F)F)c3)c(Cc3cccc4ccccc34)c(NC3CCCC3)c(=O)n21` (stereo not drawn) [Compound 005, 7-(cyclopentylamino)-8-(naphthalen-1-ylmethyl)-6-oxo-9-(3-(trifluoromethyl)phenyl)-3,4-dihydro-2H,6H-pyrido[1,2-e][1,2,5]thiadiazine-4-carboxylic acid 1,1-dioxide], the remaining activity at 25 µM in experiment [1] (setting [9]) is > 60%; in experiment [1] (setting [10]) it was 66%. The remaining activity at 100 µM in experiment [1] (setting [11]) is 11 to 31%; in experiment [1] (setting [12]) it was 20%. Also, the inhibition at 100 µM was 31 to 60% in experiment [2] (setting [13]) and 48% in experiment [2] (setting [14]).
Regarding `O=C(O)c1csc2c(-c3cccc(C(F)(F)F)c3)c(Cc3cccc4ccccc34)cc(=O)n12` [Compound 019, 7-(naphthalen-1-ylmethyl)-5-oxo-8-(3-(trifluoromethyl)phenyl)-5H-thiazolo[3,2-a]pyridine-3-carboxylic acid], the remaining activity at 25 µM is > 60% in experiment [1] (setting [3]) and 69% in experiment [1] (setting [4]). Moreover, the remaining activity at 100 µM is > 60% in experiment [1] (setting [5]) and 104% in experiment [1] (setting [6]). Also, the inhibition at 100 µM is 41% in experiment [2] (setting [7]) and 31 to 60% in experiment [2] (setting [8]).
Take `CC(C)NC(=O)c1c(Cc2cccc3ccccc23)c(-c2cccc(C(F)(F)F)c2)c2n(c1=O)C(C(=O)O)CN(C)S2(=O)=O` (stereo not drawn) [Compound 157, 7-(isopropylcarbamoyl)-2-methyl-8-(naphthalen-1-ylmethyl)-6-oxo-9-(3-(trifluoromethyl)phenyl)-3,4-dihydro-2H,6H-pyrido[1,2-e][1,2,5]thiadiazine-4-carboxylic acid 1,1-dioxide]: the remaining activity at 25 µM is > 60% in experiment [1] (setting [9]) and 81% in experiment [1] (setting [10]). For the same molecule, the remaining activity at 100 µM in experiment [1] (setting [11]) was > 60%; in experiment [1] (setting [12]), 124%. Besides, the inhibition at 100 µM in experiment [2] (setting [13]) is > 60%; in experiment [2] (setting [14]) it was 83%.
